Experimental data published in patent US20230151432A1, “KIF18A INHIBITORS FOR TREATMENT OF NEOPLASTIC DISEASES” (AMGEN INC., priority 2020, published 2023).

Columns and labels:
[1] = system: KIF18A protein localization in HeLa cells; assay: KIF18A and Centrin-3 immunostaining; format: cell-based, human; settings: 0.05 μM, 6 hours
Experimental: To analyze the effect of KIF18A protein localization in cancer cells treated with a KIF18A inhibitor, KIF18A and Centrin-3 immunostaining in HeLa cells (FIG. 11). Cells were seeded into Lab-Tek 2-well chamber slides at a density of 100,000 cells per chamber in complete growth media and grown for 2 days to approximately 80% confluency. Cells were treated for 6 hours with DMSO, KIF18A inhibitor (Compound C9, 0.05 μM) in 2 mL of complete media. Cells were fixed in 4% formaldehyde for 15 minutes at room temperature followed by secondary fixation in ice-cold 90% methanol for 10 minutes at 4° C. After fixation, cells were washed in 2 mL of Wash Buffer (1% BSA, 0.2% Triton X-100, 1×PBS) and blocked 1 mL of Blocking Buffer (2 drops of horse serum (Vector Labs, Burlingame, Calif.) per 5 mL Wash Buffer). Cells are stained with anti-KIF18A rabbit antibody (1:3000, A301-080A 05-806, Bethyl) and anti-CETN3 mouse antibody (1:1000, H00001070-M01, Abnova) in 1 mL of Wash Buffer for 2 hours at room temperature. Cells were washed twice with 2 mL Wash Buffer. […] Wide-field images were captured using 40×objective on upright Nikon Eclipse NI-E epi-fluorescence microscope running Elements software. […]

[2] = target: T1, mouse KIF18A (residues 1-467) (Mus musculus, UniProt Q91WD7); assay: KIF18A MT-ATPase motor activity, ADP-Glo luminescence assay (Example 19); format: biochemical; settings: mouse KIF18A 4 nM, 30 μM ATP; read-out: IC50, KIF18A motor activity (MT-ATPase)
T1 construct: mouse KIF18A (residues 1-467, 4 nM); made in house
T1 sequence (Q91WD7 1-467): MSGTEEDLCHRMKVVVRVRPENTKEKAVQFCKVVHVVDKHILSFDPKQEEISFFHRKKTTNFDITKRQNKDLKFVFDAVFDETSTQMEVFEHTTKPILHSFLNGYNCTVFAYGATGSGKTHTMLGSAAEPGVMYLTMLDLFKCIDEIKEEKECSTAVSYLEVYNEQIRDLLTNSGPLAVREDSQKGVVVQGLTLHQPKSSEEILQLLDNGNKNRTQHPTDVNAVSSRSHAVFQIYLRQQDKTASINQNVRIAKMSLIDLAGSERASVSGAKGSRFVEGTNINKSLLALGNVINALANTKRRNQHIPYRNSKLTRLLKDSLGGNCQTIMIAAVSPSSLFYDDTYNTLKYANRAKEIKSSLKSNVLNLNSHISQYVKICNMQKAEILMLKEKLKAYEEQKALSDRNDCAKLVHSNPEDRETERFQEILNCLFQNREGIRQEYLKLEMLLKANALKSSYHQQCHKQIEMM
T1 sequence (P02550 whole entry partner, the tested form may be a part): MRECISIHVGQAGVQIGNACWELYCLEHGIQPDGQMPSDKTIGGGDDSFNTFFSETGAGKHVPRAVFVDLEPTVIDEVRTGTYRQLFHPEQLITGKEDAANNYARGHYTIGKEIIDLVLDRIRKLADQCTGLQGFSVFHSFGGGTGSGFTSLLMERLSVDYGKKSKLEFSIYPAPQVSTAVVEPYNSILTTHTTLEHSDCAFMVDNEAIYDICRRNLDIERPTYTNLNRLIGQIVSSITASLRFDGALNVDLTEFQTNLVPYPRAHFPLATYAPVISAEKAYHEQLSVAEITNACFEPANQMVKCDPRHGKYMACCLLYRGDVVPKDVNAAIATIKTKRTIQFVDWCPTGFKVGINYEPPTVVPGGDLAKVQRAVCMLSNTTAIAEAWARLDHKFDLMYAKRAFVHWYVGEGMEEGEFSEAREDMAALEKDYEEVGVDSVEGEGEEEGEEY
T1 sequence (P02554 whole entry partner, the tested form may be a part): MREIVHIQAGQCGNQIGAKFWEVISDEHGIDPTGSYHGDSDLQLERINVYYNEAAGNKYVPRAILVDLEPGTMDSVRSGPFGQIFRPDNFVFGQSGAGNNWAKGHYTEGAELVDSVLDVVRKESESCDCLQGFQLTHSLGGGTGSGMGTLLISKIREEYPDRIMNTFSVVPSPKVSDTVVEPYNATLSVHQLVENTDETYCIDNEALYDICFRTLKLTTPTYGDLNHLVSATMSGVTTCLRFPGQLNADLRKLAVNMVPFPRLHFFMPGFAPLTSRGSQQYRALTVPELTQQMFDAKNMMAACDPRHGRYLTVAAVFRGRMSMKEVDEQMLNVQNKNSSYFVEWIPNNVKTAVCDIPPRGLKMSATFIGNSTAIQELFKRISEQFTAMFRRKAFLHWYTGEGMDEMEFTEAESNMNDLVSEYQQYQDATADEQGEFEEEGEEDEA
Experimental: A trio of KIF18A inhibitors (Compound C9, Compound C11, and Compound C12) were synthesized and tested in vitro for KIF18A inhibitory activity. […] The values represent mean t SEM from three independent experiments. […] As in vivo studies in mice were planned, the mouse KIF18A inhibitory effects of Compound C9 and C12 were assayed.
KIF18A compounds C9, C11, C12 were 2-fold serially diluted over a 22-point concentration range in DMSO using 384-well plate (Corning). Recombinant truncated kinesin motor proteins (human KIF18A (residues 1-467, 4 nM), mouse KIF18A (residues 1-467, 4 nM)) were expressed and purified. ADP-Glo luminescence assay (Promega) was used to measure the MT-ATPase motor activity. Porcine brain MTs were procured from Cytoskeleton Inc. Compounds were pre-incubated for <30 min in reaction buffer (15 mM Tris, pH 7.5, 10 mM MgCl2, 0.01% Pluronic F-68, 2% DMSO, 1 μM paclitaxel, 30 μg/mL MTs) with motor proteins at concentrations indicated above, 30 μM ATP was added to initiate the enzymatic reaction for 15 min at room temperature (RT). ADP-Glo reagents were added according to manufactures protocol, the luminescence intensity proportional to ADP present was measured using an EnVision plate reader (Perkin Elmer). Raw luminescence signal data was normalized to POC (percentage of positive control) and then Activity (%) was computed [POC=100×(sample signal−negative control signal)+(positive control signal−negative control signal). Activity (%)=POC−100]. The positive control (enzyme+substrate) and negative control (substrate alone) had equivalent concentrations of DMSO. Curve-fitting and IC50 values were determined by 4-parameter non-linear regression equation (variable slope) using GraphPad Prism 7.05 (GraphPad Software).

[3] = system: panel of cancer cell lines including breast cancer cell lines, ovary cancer cell lines, and a prostate cancer cell line; assay: 4-day image-based nuclear count assay (NCA), cancer cell line panel; set-up: species or system human
Experimental: Eg5 motor inhibitor (Ispinesib) was used as a cytotoxic control. […] Cancer cell lines were seeded in a Corning 96-well Flat Clear Bottom Black Polystyrene plate (Corning, N.Y.) in 100 μL of appropriate complete media at the appropriate density and grown for 24 hours. In one set of experiments, in preparation for cell treatment, a 2× concentration of one of: […] The compound was added to the cells with a final volume of 200 μL in complete media containing 0.5% DMSO. After 4 days (96 hours) or 6 days (144 hours) of treatment, the cells were fixed by removing 100 μL of complete media from each well and replacing it with 100 μL of 2×formaldehyde (final 4%) and incubating the plates for 15 minutes at room temperature. After fixation, the cells were permeabilized and stained in 200 μL Wash Buffer (1% BSA, 0.2% Triton X-100, 1×PBS) containing 2 μg/mL Hoechst 33342 DNA dye. The plates were sealed and incubated for 1 hour at room temperature in the dark. Cells were stored at 4° C. in the dark until data acquisition. Imaging data was acquired on Cellomics ArrayScan VTI HCS Reader (SN03090745F, ThermoFisher Scientific) using the Target Activation V4 Assay protocol (Ve 6.6.0 (Build 8153) with a 10×objective, collected 16-fields per well). […] A Mean Count EC50 value (±SD) across all sensitive cell lines was determined for each test agent.

[4] = system: human OVCAR-8 HGSOC xenograft model (TP53MUT, BRCA1silenced); assay: OVCAR-8 xenograft efficacy study, oral dosing (Example 4); format: in vivo, mouse
Experimental: Female athymic nude mice were injected with 5×10^6 OVCAR-8 cells in 0.1 mL subcutaneously in the right flank. […] Tumor volume and animal body weight measurements were determined twice per week (study start day 25, study end day 47). Tumor measurements, formulas, and regression analysis as described above for FIGS. 5A-5B. Data was plotted using GraphPad Prism software (V7.0.4), tumor volume and body weight data are expressed as means plus or minus standard error of the mean and plotted as a function of time. Statistical significance of observed differences between growth curves were calculated using SLACR package (v.1.0.3).

| SMILES | KIF18A protein localization in mitosis [1] | IC50 [2] [nM] | EC50 ([3]; Homo sapiens, 96 h, mean across the seven sensitive (TP53 mutant) of twelve cell lines, SD ±0.008) [nM] | sensitivity in nuclear count assay ([3]; five Rb-proficient lines: CAL-51, ZR-75-1, MCF-7, OVCAR-5 (TP53 WT), MDA-MB-453 (TP53 NULL)) | tumor growth inhibition (TGI) ([4]; 10 mg/kg PO QD, day 25 to day 47) [%] | tumor-free animals ([4]; 30 mg/kg PO QD) | tumor regression ([4]; 30 mg/kg PO QD, day 25 to day 47) [%] | tumor-free animals ([4]; 100 mg/kg PO QD) | tumor regression ([4]; 100 mg/kg PO QD, day 25 to day 47) [%] |
| --- | --- | --- | --- | --- | --- | --- | --- | --- | --- |
| CC(C)(C)NS(=O)(=O)c1cccc(NC(=O)c2ccc(S(=O)(=O)NC(C)(C)C)cc2N2CCC3(CC2)CC3)c1 [Compound C9, 4-(N-(tert-butyl)sulfamoyl)-N-(3-(N-(tert-butyl)sulfamoyl)phenyl)-2-(6-azaspiro[2.5]octan-6-yl)benzamide] | KIF18A protein mis-localization in mitosis | 232 | – | – | – | – | – | – | – |
| Cc1cc(NC(=O)c2ccc(NS(=O)(=O)CCO)cc2N2CCC3(CC2)CC3)nc(N2CCC(F)(F)CC2)n1 [Compound C14, N-(2-(4,4-Difluoropiperidin-1-yl)-6-methylpyrimidin-4-yl)-4-((2-hydroxyethyl)sulfonamido)-2-(6-azaspiro[2.5]octan-6-yl)benzamide] | – | – | 56.3 | insensitive (if the Span did not exceed >50%, the cell line was considered insensitive) | 57 | 4 of 10 | 86 | 8 of 10 | 98 |
